# Columns and labels:
# [1] = test system: Lithium-pilocarpine induced status epilepticus; set-up: species or system Sprague-Dawley rats; conditions: in vivo
# [2] = test system: PTZ (Pentylenetetrazol) induced clonic seizure; set-up: species or system SD rats; conditions: rat, in vivo
# [3] = test system: ACTH-refractory infantile spasm (behavioral spasms); test: animal or person; assay type: in vivo, Sprague-Dawley rats; conditions: for inhibition in vivo at 60 mg/kg: read-out: ACTH-refractory IS (ip) Protection %, percentage of activity compared to the vehicle only; for ACTH-refractory IS (ip) Peak Time: rat, in vivo
# [4] = test system: Lithium-pilocarpine induced status epilepticus; set-up: species or system Sprague-Dawley rats; conditions: in vivo; remark: listed apart in the source
# [5] = test system: PTZ (Pentylenetetrazol) induced clonic seizure; test: animal or person; assay type: in vivo, ICR mice; conditions: mouse, in vivo, ip
# [6] = test system: Picrotoxin (PIC) induced clonic seizure; test: animal or person; assay type: in vivo, ICR mice
# [7] = test system: 6 Hz-induced seizure; test: animal or person; assay type: in vivo, mice; conditions: ip
# [8] = Mus musculus, ip, read-out: PIC (ip) percentage of activity compared to the vehicle only
Structure (SMILES),"Intervention (rat, iv) Protection % [1]",PTZ test (ip) in Rats Peak Time [2],"inhibition in vivo at 60 mg/kg ([3]; Rattus norvegicus, ip)",ACTH-refractory IS (ip) Peak Time [3],"Prevention (rat, ip) Peak Time [4]",PTZ test (ip) in Mice Peak Time [5],"responders at 50 mg/kg [6, 8]","ED50 ([3]; Rattus norvegicus, ip, read-out: ACTH-refractory IS (ip) ED50)","ED50 ([7]; Mus musculus, read-out: 6 Hz ED50, 44 mA)","6 Hz Peak Time ([7]; mouse, in vivo)","ED50 ([6]; Mus musculus, ip, read-out: PIC (ip) ED50)",PIC (ip) Peak Time ([6]; mice),PTZ test (ip) in Rats Protection % [2],"responders at 10 mg/kg [6, 8]"
"C[C@@H](OC(N)=O)[C@H](O)c1ccccc1Cl [Compound 2, 1-(2-chlorophenyl)-(R)-1-hydroxypropyl-(R)-2-carbamate]",^a46 (50%),51.9 (*1) h,65.9%,1 h,0.5 h,0.5 h,16.7%,,,,,,,
"C[C@H](OC(N)=O)[C@@H](O)c1ccccc1Cl [Compound 1, 1-(2-chlorophenyl)-(S)-1-hydroxypropyl-(S)-2-carbamate]",,,,1 h,2 h,2 h,,19.8 mg/kg,13.7 mg/kg,0.25 h,18.2 mg/kg,2 h,,
"CC[C@H](OC(N)=O)[C@@H](O)c1ccccc1I [Compound 67, 1-(2-iodophenyl)-(S)-1-hydroxybutyl-(S)-2-carbamate]",^a46 (100%),,81.1%,2 h,0.5 h,0.5 h,83.3%,,,,,,^b30 (33.3%),
"CC(OC(N)=O)C(O)c1ccccc1Cl (racemic) [Compound 3, 1-(2-chlorophenyl)-1-hydroxypropyl-2-carbamate]",,18.9 (*0.5) h,34%,3 h,0.5 h,0.5 h,,,,,,,,50%

# — patent US9956197B2 (priority 2013, dated 2018)
